Laboratory results: patent publication US20160166565A1, “TREATMENT OF MULTIPLE SCLEROSIS WITH COMBINATION OF LAQUINIMOD AND FLUPIRTINE” (Teva Pharmaceutical Industries, Ltd., priority 2013, published 2016)
Read-outs that look alike come from different tables or passages of the source.

Tested on: MOG-induced EAE Mice
Test: MOG-induced EAE in mice, laquinimod alone or in combination with flupirtine
Format: in vivo, mice (C57BL/6)
Details: oral gavage qd, Day 1 to 30; for inhibition at 30 mg/kg: Mus musculus, vs vehicle
[1] = 0.5% MC + Flupirtin 30 mg/kg/day

CCOC(=O)Nc1ccc(NCc2ccc(F)cc2)nc1N [Flupirtin, ethyl {2-amino-6-[(4-fluorobenzyl)amino]pyridin-3-yl}carbamate]
Duration [1]: 17.0 days | GMS value (group mean score) [1]: 1.9 | INC (Incidence) [1]: 15/15 | MMS value (mean maximal score) [1]: 3.1 | MORT (Mortality) [1]: 0/15 | Onset [1]: 13.3 days | inhibition at 30 mg/kg (0.5% MC + Flupirtin 30 mg/kg/day, read-out: INH 1 (percent inhibition according to incidence)): 0% | inhibition at 30 mg/kg (0.5% MC + Flupirtin 30 mg/kg/day, read-out: INH 2 (percent inhibition according to MMS)): 11.4% | inhibition at 30 mg/kg (0.5% MC + Flupirtin 30 mg/kg/day, read-out: INH 3 (percent inhibition / activity according to GMS)): 17.4%

CCN(C(=O)c1c(O)c2c(Cl)cccc2n(C)c1=O)c1ccccc1 [LAQ, 5-chloro-N-ethyl-4-hydroxy-1-methyl-2-oxo-N-phenyl-1,2-dihydroquinoline-3-carboxamide]
Duration (LAQ 1 mg/kg/day + 0.5% MC): 16.0 days | GMS value (group mean score) (LAQ 1 mg/kg/day + 0.5% MC): 1.9 | INC (Incidence) (LAQ 1 mg/kg/day + 0.5% MC): 15/15 | MMS value (mean maximal score) (LAQ 1 mg/kg/day + 0.5% MC): 3.4 | MORT (Mortality) (LAQ 1 mg/kg/day + 0.5% MC): 0/15 | Onset (LAQ 1 mg/kg/day + 0.5% MC): 14.8 days | Duration (LAQ 5 mg/kg/day + 0.5% MC): 14.7 days | GMS value (group mean score) (LAQ 5 mg/kg/day + 0.5% MC): 1.6 | INC (Incidence) (LAQ 5 mg/kg/day + 0.5% MC): 14/15 | MMS value (mean maximal score) (LAQ 5 mg/kg/day + 0.5% MC): 2.9 | MORT (Mortality) (LAQ 5 mg/kg/day + 0.5% MC): 0/15 | Onset (LAQ 5 mg/kg/day + 0.5% MC): 15.0 days
